According to patent publication US20040082588A1, “Methods for treating disorders of calcium homeostasis” (Schering Corporation, priority 2002, published 2004):

Key:
Female Rats [1] = assay: One-month exploratory nephrotoxicity study in female rats: urine calcium and phosphorus excretion; type: in vivo, rat; settings: for Mean calcium excretion / Mean phosphorus excretion: female rats, 180 mg/kg daily
Text: (§1) A study was undertaken to assess the potential nephrotoxicity of the compound of Formula 1 in rats. The rats were 6 week old females weighing 120.7 to 173.5 g at dosing initiation.
(§2) The study design is summarized below in Tables 1-3: […]

Female Rats [2] = assay: One-month exploratory nephrotoxicity study in female rats: serum PTH; type: in vivo, rat; settings: for Mean serum PTH: female rats, 180 mg/kg daily
Text: as §1, §2

Female Rats [3] = assay: One-month exploratory nephrotoxicity study in female rats: serum ADH; type: in vivo, rat; settings: for Mean serum ADH: female rats, 180 mg/kg daily
Text: as §1, §2

Female Rats [4] = assay: One-month exploratory nephrotoxicity study in female rats: urine volume and osmolality; type: in vivo, rat; settings: for Mean urine osmolality / Mean urine volume: female rats, 180 mg/kg daily
Text: as §1, §2

rat parathyroid glands = assay: Micrographic analysis (light and electron microscopy) of rat parathyroid glands; type: in vivo
Text: Electron photomicrographs of the right parathyroid gland from two control rats sacrificed on Day 13 (Nos. 26F and 29F), two control rats sacrificed on Day 29 (Nos. 39F and 40F) and two Formula 1-dosed rats sacrificed on Day 29 (Nos. 76F and 77F) were examined for ultrastructural changes. […] A single rounded parathyroid epithelial cell in animal No. 77F appeared apoptotic with condensed chromatin and intact mitochondria and contained numerous vesicles similar to those previously described. The apoptotic cell is consistent with the single cell necrosis observed at the light microscopic level.

Ras-3T3 tumors = settings: mice bearing Ras-3T3 tumors with hypercalcemia (MAH); cited from earlier work
[5] = biological target: Farnesyl Protein Transferase (FPT) (Homo sapiens, UniProt P49356); settings: cited from earlier work
[6] = within 6 days of dosing at 180 mg/kg, rats
[7] = electron photomicrographs, dosed rats
[8] = electron photomicrographs, two dosed rats sacrificed on Day 29

## NC(=O)N1CCC(CC(=O)N2CCC(C3c4ncc(Br)cc4CCc4cc(Cl)cc(Br)c43)CC2)CC1 (centres unmarked) [Formula 1]
Female Rats [1]; Day 2, urine
  Mean calcium excretion: 5.65 mg/kg/24 hours
  Mean phosphorus excretion: 55.9 mg/kg/24 hours
Female Rats [1]; Day 6, urine
  Mean calcium excretion: 33 mg/kg/24 hours
  Mean phosphorus excretion: 13.5 mg/kg/24 hours
Female Rats [1]; Day 13, urine
  Mean calcium excretion: 20.7 mg/kg/24 hours
  Mean phosphorus excretion: 12.1 mg/kg/24 hours
Female Rats [1]; Day 29, urine
  Mean calcium excretion: 19.2 mg/kg/24 hours
  Mean phosphorus excretion: 7.3 mg/kg/24 hours
Female Rats [1]; [6]
  calcium excretion in the urine (change vs control): increased
  phosphorus excretion (change vs control): decreased
Female Rats [2]; Day 2
  Mean serum PTH: 60 ng/mL
Female Rats [2]; Day 6
  Mean serum PTH: 51 ng/mL
Female Rats [2]; Day 13
  Mean serum PTH: 68 ng/mL
Female Rats [2]; Day 29
  Mean serum PTH: 44 ng/mL
Female Rats [2]; rats dosed at 180 mg/kg
  serum PTH (change vs control): decrease
Female Rats [2]; within 28 days, 180 mg/kg
  rats evaluated with lower PTH serum concentrations than the control rats: 5 out of 5
Female Rats [3]; Day 2
  Mean serum ADH: 350 pg/mL
Female Rats [3]; Day 6
  Mean serum ADH: 513 pg/mL
Female Rats [3]; Day 13
  Mean serum ADH: 547 pg/mL
Female Rats [3]; Day 29, water consumption had increased at this timepoint
  Mean serum ADH: 616^1 pg/ml
Female Rats [3]; rats dosed at 180 mg/kg
  antidiuretic hormone (ADH) concentrations (change vs control): increases
Female Rats [4]; Day 2
  Mean urine osmolality: 646 mOsm/kg
  Mean urine volume: 124 ml/kg/24 hours
Female Rats [4]; Day 6
  Mean urine osmolality: 646 mOsm/kg
  Mean urine volume: 195 ml/kg/24 hours
Female Rats [4]; Day 13
  Mean urine osmolality: 655 mOsm/kg
  Mean urine volume: 177 ml/kg/24 hours
Female Rats [4]; Day 29
  Mean urine osmolality: 606 mOsm/kg
  Mean urine volume: 166 ml/kg/24 hours
Female Rats [4]; rats dosed at 180 mg/kg
  condition suggested by urine osmolality, urine volume and ADH changes: nephrogenic diabetes insipidus
  urine osmolality (change vs control): Decreases
  urine volume (change vs control): increases
Rat parathyroid glands; [7]
  changes indicating chronic stimulation of parathyroid (rough endoplasmic reticulum, Golgi apparatus): no changes indicating chronic stimulation
  exhaustion vacuoles in parathyroid cells: no evidence of exhaustion vacuoles
Rat parathyroid glands; [8]
  Ultrastructure of parathyroid chief cells: cell borders: less conspicuous cell borders with fewer, less distinctive cytoplasmic projections
  Ultrastructure of parathyroid chief cells: cytoplasm content: numerous, generally membrane-bound, vesicles
  number of myeloid bodies and fat globules in parathyroid cells: minimally increased
Rat parathyroid glands; rats dosed with 180 mg/kg
  Microscopic evaluation of the parathyroid glands: cytoplasmic vacuolation

## COC(=O)[C@H](CCSC)NC(=O)[C@H](/C=C\[C@@H](/C=C/[C@@H](N)CS)C(C)C)Cc1ccccc1 [Formula B-1086]
Ras-3T3 tumors
  serum PTHRP levels: reduction
  serum calcium: normalization

## NC(=O)N1CCC(CC(=O)N2CCC([C@H]3c4ncc(Br)cc4CCc4cc(Cl)cc(Br)c43)CC2)CC1 [SCH66336]
[5]
  FPT mediated farnesylation of the Ras protein: inhibit
